Values after ≈ are worked out from the molar mass of the structure shown.
Assays:
Format in all cases: functional
Staphylococcus aureus [1] = test: Antibacterial activity against Staphylococcus aureus by well diffusion method
Escherichia coli = test: Antibacterial activity against Escherichia coli by well diffusion method
Artemia salina = test: Insecticidal activity against Artemia salina; conditions: read-out: LD50 (the source's name)
Staphylococcus aureus [2] = test: Antibacterial activity against Staphylococcus aureus assessed as inhibition zone at 100 ug/disc by well diffusion method; conditions: read-out: IZ

`O=C(N[C@H](CO)[C@H](O)c1ccc([N+](=O)[O-])cc1)C(Cl)Cl` [CHLORAMPHENICOL] was tested. Which MIC (Staphylococcus aureus [1]) did it give?
Its MIC is 4 µg/mL (≈ 12.4 µM).

What about the MIC (Escherichia coli) of the same molecule?
Its MIC is 4 µg/mL (≈ 12.4 µM).

Which MIC (Escherichia coli) does the source give for `C=CC(C)(C)c1[nH]c2ccccc2c1/C=C1\NC(=O)[C@H](CO)NC1=O` [CRISTATUMIN A] here?
The MIC was 64 µg/mL (≈ 189 µM).

How did the LC50 (Artemia salina) turn out when `C=CC(C)(C)c1[nH]c2c(CC=C(C)C)cc(CC=C(C)C)cc2c1C[C@@H]1NC(=O)[C@H](CO)NC1=O` [CRISTATUMIN B] was run?
The LC50 was 74.4 µg/mL (≈ 156 µM).

`C=CC(C)(C)c1[nH]c2ccccc2c1/C=C(\NC(=O)C(N)=O)C(=O)OC` [CRISTATUMIN D] was tested. Which zone of inhibition at 100 µg/disc (Staphylococcus aureus [2]) did it give?
Its zone of inhibition at 100 µg/disc is 8 mm.

How did the zone of inhibition at 100 µg/disc (Staphylococcus aureus [2]) turn out when `C=CC(C)(C)c1[nH]c2c(CC=C(C)C)cc(CC=C(C)C)cc2c1C[C@@H]1NC(=O)[C@H](C)NC1=O` [ECHINULIN] was run?
The zone of inhibition at 100 µg/disc was 8 mm.

For `C=CC(C)(C)c1[nH]c2ccc(CC=C(C)C)cc2c1/C=C1\NC(=O)[C@H](C)NC1=O` [ISOECHINULIN A], which LC50 (Artemia salina) is on record?
The LC50 was 16.9 µg/mL (≈ 43.2 µM).

For `C=CC(C)(C)c1[nH]c2ccc(CC=C(C)C)cc2c1C[C@@H]1NC(=O)[C@H](C)NC1=O` [TARDIOXOPIPERAZINE A], which MIC (Staphylococcus aureus [1]) is on record?
The MIC was 8 µg/mL (≈ 20.3 µM).

With `C=CC(C)(C)c1[nH]c2c(CC=C(C)C)cccc2c1/C=C1\NC(=O)[C@H](C)NC1=O` [VARIECOLORIN G] as the molecule, how does the LC50 (Artemia salina) read?
Its LC50 is 42.6 µg/mL (≈ 109 µM).
